Measured values published in patent publication US9980927B2, “Use of tapentadol for inhibiting and/or treating depression and anxiety” (Gruenenthal GmbH, priority 2011, dated 2018).

Test system: patients with inadequately managed, severe chronic low back pain with or without a neuropathic pain component
Assay: Hospital Anxiety and Depression Scale (HADS) depression score; open-label phase IIIb trial, tapentadol prolonged release 50-250 mg bid for up to 12 weeks
Assay type: in vivo, human patients
Procedure: As used herein, the “depression score” is a value determining the degree of the depression. The scale of depression scores covers the range from 0 to 21, wherein the degree of the depression is high in case of high values and low in case of low values. In a group of tested subjects, typically the mean or mediate values of depression scores are determined. The mean value is the sum of all depression scores divided by the number of subjects. The mediate value is the middle depression score in the set of determined scores. Preferably, the “depression score” is defined as in the experimental section.
A subgroup suffering from neuropathic pain due to lumbar radiculopathy was also investigated.
This was a multicenter, multinational, open-label, effectiveness phase IIIb trial to evaluate effectiveness and safety of tapentadol prolonged release treatment in patients with inadequately managed, severe chronic low back pain with or without a neuropathic pain component. Patients taking WHO Step II analgesics discontinued those analgesics before starting study medication; patients taking Step I analgesics and/or centrally acting co-analgesics continued on the same dose. […] All patients received tapentadol prolonged release (50-250 mg bid) for up to 12 weeks (5-week titration period and a 7-week maintenance period). Tapentadol immediate release (IR) 50 mg (twice a day, hours apart) was permitted (combined total daily dose of tapentadol prolonged release and tapentadol IR, 500 mg/day). The primary efficacy endpoint was the change from Baseline to Week 6 (when tapentadol prolonged release doses were stable) in average pain intensity on the 11-point NRS-3 using the last observation carried forward (LOCF) for imputing missing scores. The painDETECT questionnaire was used to evaluate the likelihood of a neuropathic pain component of low back pain; patients were classified as painDETECT “negative,” “unclear,” or “positive.” The population of patients classified as painDETECT negative was limited to approximately 30% of the total population.
In the painDETECT positive trial population the “diagnosis of lumbar radiculopathy” was evaluated which was defined per study protocol according following criteria: • typical dermatomal pain (radiating beyond the knee towards the foot, pain evoked by stretching within distribution of the ischiadic/femoral nerve) • signs of root dysfunction: • such as sensory impairment, motor symptoms from compression of lumbar nerve root (L4, L5, S1). • and/or absent or diminished quadriceps femoris or triceps surae reflexes. • and/or quantitative sensory testing (QST) deficit and pain distribution present in the same dermatomal area.
All subjects completed Short Form-36 (SF-36) and EuroQol-5 Dimension (EQ-5D) questionnaires and the Hospital Anxiety and Depression Scale (HADS). The Patient Global Impression of Change (PGIC) and Clinical global impression of change (CGIC) were also used as secondary endpoints. For both tests, patients completed the statement, “since I began trial treatment, I would rate my overall condition as,” using 7 possible responses (“very much worse” to “very much improved”). Adverse events were recorded throughout the trial.
In the following • (i) N is the number of subjects of the specified diagnosis group, • (ii) n is the number of subjects with data available, • (iii) “Mean” is the mean score of the subjects, i.e. the sum of all scores is divided by the number of subjects, • (iv) SD is the standard deviation, • (v) “Median” is the median score of the subjects, i.e. the middle score in the set of scores, • (vi) “Range” is the range of scores of the subjects, i.e. the range defined by the lowest and the highest score of the set of scores. First, the depression scores are presented. The total number of subjects in the clinical study: N=175

[1] = Visit 8, presumed neuropathic pain component N=41
[2] = Visit 8, presumed or defined neuropathic
[3] = Visit 8, presumed or defined neuropathic pain component N=126
[4] = Visit 8, subjects with nociceptive pain N=49
[5] = Visit 9, defined neuropathic pain N=85
[6] = Visit 9, positive diagnosis of lumbar radiculopathy-neuropathic pain subset N=44
[7] = Visit 9, presumed neuropathic pain component N=41
[8] = Visit 9, presumed or defined neuropathic pain component N=126
[9] = Visit 9, subjects with nociceptive pain N=49
[10] = Visit 10, defined neuropathic pain N=85
[11] = Visit 10, positive diagnosis of lumbar radiculopathy-neuropathic pain subset N=44
[12] = Visit 10, presumed neuropathic pain component N=41
[13] = Visit 10, presumed or defined neuropathic pain component N=126
[14] = Visit 10, subjects with nociceptive pain N=49
[15] = Visit 11, defined neuropathic pain N=85
[16] = Visit 11, positive diagnosis of lumbar radiculopathy-neuropathic pain subset N=44
[17] = Visit 11, presumed neuropathic pain component N=41
[18] = Visit 11, presumed or defined neuropathic pain component N=126
[19] = Visit 11, subjects with nociceptive pain N=49
[20] = Visit 12, defined neuropathic pain N=85
[21] = Visit 12, positive diagnosis of lumbar radiculopathy-neuropathic pain subset N=44
[22] = Visit 12, presumed neuropathic pain component N=41
[23] = Visit 12, presumed or defined neuropathic
[24] = Visit 12, presumed or defined neuropathic pain component N=126
[25] = Visit 12, subjects with nociceptive pain N=49

Structure (SMILES): CC[C@@H](c1cccc(O)c1)[C@@H](C)CN(C)C [tapentadol, (−)-(1R,2R)-3-(3-dimethylamino-1-ethyl-2-methyl-propyl)-phenol]
- Depression score Median (Visit 8, positive diagnosis of lumbar radiculopathy-neuropathic pain subset N=44): 6.0
- Depression score Mean (SD) [1]: 6.4 (4.24)
- Depression score Median [1]: 6.0
- Depression score change from baseline Mean (SD) [2]: −1.9 (3.30)
- Depression score change from baseline Median [2]: −1.0
- Depression score Mean (SD) [3]: 6.4 (4.24)
- Depression score Median [3]: 6.0
- Depression score Mean (SD) [4]: 5.5 (3.90)
- Depression score Median [4]: 4.5
- Depression score change from baseline Mean (SD) (Visit 8, total): −1.6 (3.09)
- Depression score change from baseline Median (Visit 8, total): −1.0
- Depression score Mean (SD) (Visit 8, total subjects N=175): 6.2 (4.16)
- Depression score Median (Visit 8, total subjects N=175): 6.0
- Depression score Mean (SD) [5]: 6.5 (5.06)
- Depression score Median [5]: 6.0
- Depression score Mean (SD) [6]: 6.2 (4.63)
- Depression score Median [6]: 7.5
- Depression score Mean (SD) [7]: 6.4 (4.32)
- Depression score Median [7]: 6.0
- Depression score Mean (SD) [8]: 6.5 (4.81)
- Depression score Median [8]: 6.0
- Depression score Mean (SD) [9]: 5.4 (3.49)
- Depression score Median [9]: 5.0
- Depression score Mean (SD) (Visit 9, total subjects N=175): 6.1 (4.48)
- Depression score Median (Visit 9, total subjects N=175): 6.0
- Depression score Mean (SD) [10]: 6.5 (5.04)
- Depression score Median [10]: 6.0
- Depression score Mean (SD) [11]: 6.2 (4.50)
- Depression score Median [11]: 7.0
- Depression score Mean (SD) [12]: 6.4 (5.34)
- Depression score Median [12]: 5.0
- Depression score Mean (SD) [13]: 6.5 (5.09)
- Depression score Median [13]: 6.0
- Depression score Mean (SD) [14]: 5.5 (3.34)
- Depression score Median [14]: 5.5
- Depression score Mean (SD) (Visit 10, total subjects N=175): 6.2 (4.66)
- Depression score Median (Visit 10, total subjects N=175): 6.0
- Depression score Mean (SD) [15]: 5.9 (4.70)
- Depression score Median [15]: 5.5
- Depression score Mean (SD) [16]: 6.0 (4.69)
- Depression score Median [16]: 6.5
- Depression score Mean (SD) [17]: 6.4 (5.11)
- Depression score Median [17]: 5.0
- Depression score Mean (SD) [18]: 6.0 (4.80)
- Depression score Median [18]: 5.0
- Depression score Mean (SD) [19]: 5.6 (4.04)
- Depression score Median [19]: 5.0
- Depression score Mean (SD) (Visit 11, total subjects N=175): 5.9 (4.59)
- Depression score Median (Visit 11, total subjects N=175): 5.0
- Depression score change from baseline Mean (SD) (Visit 12): −1.5 (3.30)
- Depression score change from baseline Median (Visit 12): −2.0
- Depression score change from baseline Mean (SD) (Visit 12, defined neuropathic): −2.2 (3.31)
- Depression score change from baseline Median (Visit 12, defined neuropathic): −2.0
- Depression score Mean (SD) [20]: 5.8 (4.76)
- Depression score Median [20]: 5.0
- Depression score change from baseline Mean (SD) (Visit 12, lumbar radiculopathy): −2.1 (3.30)
- Depression score change from baseline Median (Visit 12, lumbar radiculopathy): −1.0
- Depression score change from baseline Mean (SD) (Visit 12, nociceptive): −0.5 (2.86)
- Depression score change from baseline Median (Visit 12, nociceptive): 0.0
- Depression score Mean (SD) [21]: 5.3 (4.09)
- Depression score Median [21]: 5.0
- Depression score Mean (SD) [22]: 6.2 (4.66)
- Depression score Median [22]: 5.0
- Depression score change from baseline Mean (SD) [23]: −2.0 (3.30)
- Depression score change from baseline Median [23]: −2.0
- Depression score Mean (SD) [24]: 5.9 (4.70)
- Depression score Median [24]: 5.0
- Depression score Mean (SD) [25]: 4.9 (3.13)
- Depression score Median [25]: 4.0
- Depression score change from baseline Mean (SD) (Visit 12, total): −1.6 (3.24)
- Depression score change from baseline Median (Visit 12, total): −2.0
- Depression score Mean (SD) (Visit 12, total subjects N=175): 5.7 (4.35)
- Depression score Median (Visit 12, total subjects N=175): 5.0
- efficacy against depression (conclusion from the clinical data): significant efficacy
- depression (measured with HADS) (patient sub-population with low back pain with a neuropathic component): significant improvement
